Numbers after ± are expanded uncertainties.
Tests used:
[1] = xn = mol fraction of the nth substance listed; conditions: 101 kPa, Liquid; for viscosity: Capillary tube (Ostwald / Ubbelohde) method; for mass density: Vibrating tube method
[2] = refractive index (Na D-line) (dimensionless); xn = mol fraction of the nth substance listed; conditions: 101 kPa, Liquid, Standard Abbe refractometry

CC(C)=O [acetone] + CO
Conditions | mass density, [1] [kg/m3] | refractive index, [2] | viscosity, [1] [mPa·s]
298.15 K, x2 = 0 | 784.41 ± 0.12 | 1.3558 ± 0.0006 | 0.3034 ± 0.0024
298.15 K, x2 = 0.1036 | 786.21 ± 0.12 | 1.3539 ± 0.0006 | 0.3003 ± 0.0024
298.15 K, x2 = 0.2043 | 787.49 ± 0.12 | 1.3521 ± 0.0006 | 0.3006 ± 0.0024
298.15 K, x2 = 0.302 | 788.57 ± 0.12 | 1.3502 ± 0.0006 | 0.3059 ± 0.0024
298.15 K, x2 = 0.4013 | 789.53 ± 0.12 | 1.3483 ± 0.0006 | 0.3143 ± 0.0025
298.15 K, x2 = 0.5004 | 790.3 ± 0.12 | 1.3458 ± 0.0006 | 0.3299 ± 0.0026
298.15 K, x2 = 0.6006 | 790.81 ± 0.12 | 1.3426 ± 0.0006 | 0.3533 ± 0.0027
298.15 K, x2 = 0.6969 | 790.98 ± 0.12 | 1.3389 ± 0.0006 | 0.3852 ± 0.0029
298.15 K, x2 = 0.802 | 790.73 ± 0.12 | 1.3352 ± 0.0006 | 0.4316 ± 0.0031
298.15 K, x2 = 0.8965 | 789.83 ± 0.12 | 1.3315 ± 0.0006 | 0.4833 ± 0.0034
303.15 K, x2 = 0 | 778.66 ± 0.12 | 1.3534 ± 0.0006 | 0.2966 ± 0.0024
303.15 K, x2 = 0.1036 | 780.47 ± 0.12 | 1.3513 ± 0.0006 | 0.295 ± 0.0024
303.15 K, x2 = 0.2043 | 781.81 ± 0.12 | 1.3497 ± 0.0006 | 0.2939 ± 0.0024
303.15 K, x2 = 0.302 | 782.95 ± 0.12 | 1.3482 ± 0.0006 | 0.2987 ± 0.0024
303.15 K, x2 = 0.4013 | 784 ± 0.12 | 1.3464 ± 0.0006 | 0.3073 ± 0.0025
303.15 K, x2 = 0.5004 | 784.89 ± 0.12 | 1.3439 ± 0.0006 | 0.3188 ± 0.0025
303.15 K, x2 = 0.6006 | 785.55 ± 0.12 | 1.3407 ± 0.0006 | 0.34 ± 0.0026
303.15 K, x2 = 0.6969 | 785.85 ± 0.12 | 1.3369 ± 0.0006 | 0.3663 ± 0.0028
303.15 K, x2 = 0.802 | 785.67 ± 0.12 | 1.3328 ± 0.0006 | 0.4051 ± 0.003
303.15 K, x2 = 0.8965 | 784.85 ± 0.12 | 1.3291 ± 0.0006 | 0.4472 ± 0.0032
308.15 K, x2 = 0 | 773.08 ± 0.13 | 1.3509 ± 0.0006 | 0.2831 ± 0.0024
308.15 K, x2 = 0.1036 | 774.93 ± 0.13 | 1.3493 ± 0.0006 | 0.2807 ± 0.0023
308.15 K, x2 = 0.2043 | 776.27 ± 0.12 | 1.3481 ± 0.0006 | 0.2803 ± 0.0023
308.15 K, x2 = 0.302 | 777.4 ± 0.12 | 1.3465 ± 0.0006 | 0.2844 ± 0.0024
308.15 K, x2 = 0.4013 | 778.45 ± 0.12 | 1.3444 ± 0.0006 | 0.2945 ± 0.0024
308.15 K, x2 = 0.5004 | 779.36 ± 0.12 | 1.3419 ± 0.0006 | 0.3103 ± 0.0025
308.15 K, x2 = 0.6006 | 780.05 ± 0.12 | 1.3385 ± 0.0006 | 0.3255 ± 0.0025
308.15 K, x2 = 0.6969 | 780.38 ± 0.12 | 1.3349 ± 0.0006 | 0.3531 ± 0.0027
308.15 K, x2 = 0.802 | 780.24 ± 0.12 | 1.3309 ± 0.0006 | 0.3857 ± 0.0029
308.15 K, x2 = 0.8965 | 779.53 ± 0.12 | 1.3269 ± 0.0006 | 0.4278 ± 0.0031
313.15 K, x2 = 0 | 766.95 ± 0.13 | 1.349 ± 0.0006 | 0.2689 ± 0.0023
313.15 K, x2 = 0.1036 | 768.83 ± 0.13 | 1.3469 ± 0.0006 | 0.2647 ± 0.0023
313.15 K, x2 = 0.2043 | 770.26 ± 0.13 | 1.3457 ± 0.0006 | 0.2657 ± 0.0023
313.15 K, x2 = 0.302 | 771.49 ± 0.13 | 1.3435 ± 0.0006 | 0.2704 ± 0.0023
313.15 K, x2 = 0.4013 | 772.65 ± 0.13 | 1.3415 ± 0.0006 | 0.2769 ± 0.0023
313.15 K, x2 = 0.5004 | 773.67 ± 0.12 | 1.3392 ± 0.0006 | 0.2881 ± 0.0024
313.15 K, x2 = 0.6006 | 774.49 ± 0.12 | 1.3362 ± 0.0006 | 0.3057 ± 0.0024
313.15 K, x2 = 0.6969 | 775.01 ± 0.12 | 1.3329 ± 0.0006 | 0.3316 ± 0.0026
313.15 K, x2 = 0.802 | 775.12 ± 0.12 | 1.3289 ± 0.0006 | 0.3619 ± 0.0027
313.15 K, x2 = 0.8965 | 774.65 ± 0.12 | 1.3253 ± 0.0006 | 0.3989 ± 0.0029
318.15 K, x2 = 0 | 761.26 ± 0.13 | 1.3449 ± 0.0006 | 0.2511 ± 0.0022
318.15 K, x2 = 0.1036 | 763.15 ± 0.13 | 1.3432 ± 0.0006 | 0.2478 ± 0.0022
318.15 K, x2 = 0.2043 | 764.64 ± 0.13 | 1.3414 ± 0.0006 | 0.2494 ± 0.0022
318.15 K, x2 = 0.302 | 765.92 ± 0.13 | 1.3397 ± 0.0006 | 0.2526 ± 0.0022
318.15 K, x2 = 0.4013 | 767.11 ± 0.13 | 1.3381 ± 0.0006 | 0.2601 ± 0.0022
318.15 K, x2 = 0.5004 | 768.17 ± 0.13 | 1.3361 ± 0.0006 | 0.2692 ± 0.0023
318.15 K, x2 = 0.6006 | 769.04 ± 0.13 | 1.3334 ± 0.0006 | 0.2903 ± 0.0024
318.15 K, x2 = 0.6969 | 769.62 ± 0.13 | 1.3303 ± 0.0006 | 0.3096 ± 0.0025
318.15 K, x2 = 0.802 | 769.88 ± 0.12 | 1.3262 ± 0.0006 | 0.3377 ± 0.0026
318.15 K, x2 = 0.8965 | 769.53 ± 0.12 | 1.3221 ± 0.0006 | 0.375 ± 0.0028

From the NIST ThermoML archive (doi:10.1016/j.fluid.2018.10.024)
